Source: patent publication EP2121694B1, “CYCLOPROPYL FUSED INDOLOBENZAZEPINE HCV NS5B INHIBITORS” (Bristol-Myers Squibb Company, priority 2007, dated 2008)
Read-outs that look alike come from different tables or passages of the source.

What was measured:
[1] = system: HCV replicon; test: HCV FRET screening assay in HCV replicon cells; format: cell-based; conditions: Hepatitis C virus
Excerpt: FRET Assay Preparation. To perform the HCV FRET screening assay, 96-well cell culture plates were used. The FRET peptide (Anaspec, Inc.) (Taliani et al., Anal. Biochem. 1996, 240, 60-67) contains a fluorescence donor, EDANS, near one end of the peptide and an acceptor, DABCYL, near the other end. The fluorescence of the peptide is quenched by […] resonance energy transfer (RET) between the donor and the acceptor, but as the NS3 protease cleaves the peptide the products are released from RET quenching and the fluorescence of the donor becomes apparent. The assay reagent was made as follows: 5X cell Luciferase cell culture lysis reagent from Promega (#E153A) diluted to 1X with dH2O, NaCl added to 150 mM final, the FRET peptide diluted to 20 uM final from a 2 mM stock.
To prepare plates, HCV replicon cells, with or without a Renilla luciferase reporter gene, were trypsinized and placed into each well of a 96-well plate with titrated test compounds added in columns 3 through 12; columns 1 and 2 contained a control compound (HCV protease inhibitor), and the bottom row contained cells without compound. The plates were then placed in a CO2 incubator at 37 °C.
Assays. Subsequent to addition of the test compounds described above (FRET Assay Preparation), at various times the plate was removed and Alamar blue solution (Trek Diagnostics, #00-100) was added per well as a measure of cellular toxicity. After reading in a Cytoflour 4000 instrument (PE Biosystems), plates were rinsed with PBS and then used for FRET assay by the addition of 30 ul of the FRET peptide assay reagent described above (FRET Assay Preparation) per well. The plate was then placed into the Cytoflour 4000 instrument which had been set to 340 excite/490 emission, automatic mode for 20 cycles and the plate read in a kinetic mode. Typically, the signal to noise using an endpoint analysis after the reads was at least three-fold. Alternatively, after Alamar blue reading, plates were rinsed with PBS, 50 ul of DMEM (high glucose) without phenol red was added and plates were then used for luciferase assay using the Promega Dual-Glo Luciferase Assay System.
Compound analysis was determined by quantification of the relative HCV replicon inhibition and the relative cytotoxicity values. To calculate cytoxicity values, the average Alamar Blue fluorescence signals from the control wells were set as 100% non-toxic. The individual signals in each of the compound test wells were then divided by the average control signal and multiplied by 100% to determine […]. To calculate the HCV replicon inhibition values, an average background value was obtained from the two wells containing the highest amount of HCV protease inhibitor at the end of the assay period. These numbers were similar to those obtained from naïve Huh-7 cells.
The background numbers were then subtracted from the average signal obtained from the control wells and this number was used as 100% activity. The individual signals in each of the compound test wells were then divided by the averaged control values after background subtraction and multiplied by 100% to determine percent activity. EC50 values for a protease inhibitor titration were calculated as the concentration which caused a 50% reduction in FRET or luciferase activity. The two numbers generated for the compound plate, percent cytoxicity and percent activity were used to determine compounds of interest for further analysis.

[2] = molecular target: T1, HCV NS5B (Hepatitis C virus genotype 1b, UniProt Q9WMX2); test: Modified HCV NS5B RdRp enzyme assay (preincubation protocol); format: biochemical; conditions: HCV NS5B RdRp genotype 1b
T1 construct: The protein was expressed with an 18 amino acid C-terminal truncation to enhance the solubility; made in house; host or cells: E. coli BL21(DE3), pET21a vector
T1 sequence (Q9WMX2 2420-2992): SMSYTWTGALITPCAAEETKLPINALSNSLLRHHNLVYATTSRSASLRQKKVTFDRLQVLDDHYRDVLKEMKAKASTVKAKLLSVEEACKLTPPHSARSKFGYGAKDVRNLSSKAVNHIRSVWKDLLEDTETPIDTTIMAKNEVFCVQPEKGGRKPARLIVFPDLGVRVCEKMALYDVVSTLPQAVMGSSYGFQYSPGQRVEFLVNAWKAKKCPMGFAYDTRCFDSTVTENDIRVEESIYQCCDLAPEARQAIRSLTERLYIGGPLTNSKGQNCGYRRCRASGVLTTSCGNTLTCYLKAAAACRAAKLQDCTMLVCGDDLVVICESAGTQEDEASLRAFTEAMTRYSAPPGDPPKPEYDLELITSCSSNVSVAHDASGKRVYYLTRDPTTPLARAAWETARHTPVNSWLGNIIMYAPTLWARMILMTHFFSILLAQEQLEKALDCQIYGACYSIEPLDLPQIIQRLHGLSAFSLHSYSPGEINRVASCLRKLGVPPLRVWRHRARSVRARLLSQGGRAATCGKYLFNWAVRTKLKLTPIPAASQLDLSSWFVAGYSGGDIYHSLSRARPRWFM
Procedure: HCV NS5B RdRp cloning, expression, and purification. The cDNA encoding the NS5B protein of HCV, genotype 1b, was cloned into the pET21a expression vector. The protein was expressed with an 18 amino acid C-terminal truncation to enhance the solubility. The E. coli competent cell line BL21(DE3) was used for expression of the protein. Cultures were grown at 37 °C for ∼ 4 hours until the cultures reached an optical density of 2.0 at 600 nm. The cultures were cooled to 20 °C and induced with 1 mM IPTG. Fresh ampicillin was added to a final concentration of 50 µg/ml and the cells were grown overnight at 20 °C.
Cell pellets (3L) were lysed for purification to yield 15-24 mgs of purified NS5B. The lysis buffer consisted of 20 mM Tris-HCl, pH 7.4, 500 mM NaCl, 0.5% triton X-100, 1 mM DTT, 1mM EDTA, 20% glycerol, 0.5 mg/ml lysozyme, 10 mM MgCl2, 15 ug/ml deoxyribonuclease I, and Complete TM protease inhibitor tablets (Roche). After addition of the lysis buffer, frozen cell pellets were resuspended using a tissue homogenizer. To reduce the viscosity of the sample, aliquots of the lysate were sonicated on ice using a microtip attached to a Branson sonicator. The sonicated lysate was centrifuged at 100,000 x g for 1hr at 4 °C and filtered through a 0.2 µm filter unit (Corning).
The protein was purified using three sequential chromatography steps: Heparin sepharose CL-6B, polyU sepharose 4B, and Hitrap SP sepharose (Pharmacia). The chromatography buffers were identical to the lysis buffer but contained no lysozyme, deoxyribonuclease I, MgCl2 or protease inhibitor and the NaCl concentration of the buffer was adjusted according to the requirements for charging the protein onto the column. Each column was eluted with a NaCl gradient which varied in length from 5-50 column volumes depending on the column type. After the final chromatography step, the resulting purity of the enzyme is >90% based on SDS-PAGE analysis. The enzyme was aliquoted and stored at -80 °C.
Standard HCV NS5B RdRp enzyme assay. HCV RdRp genotype 1b assays were run in a final volume of 60 µl in 96 well plates (Costar 3912). The assay buffer is composed of 20 mM Hepes, pH 7.5, 2.5 mM KCl, 2.5 mM MgCl2, 1 mM DTT, 1.6 U RNAse inhibitor (Promega N2515), 0.1 mg/ml BSA (Promega R3961), and 2 % glycerol. All compounds were serially diluted (3-fold) in DMSO and diluted further in water such that the final concentration of DMSO in the assay was 2%. HCV RdRp genotype 1b enzyme was used at a final concentration of 28 nM. A polyA template was used at 6 nM, and a biotinylated oligo-dT12 primer was used at 180 nM final concentration. Template was obtained commercially (Amersham 27-4110). Biotinylated primer was prepared by Sigma Genosys. 3H-UTP was used at 0.6 µCi (0.29 µM total UTP). Reactions were initiated by the addition of enzyme, incubated at 30 °C for 60 min, and stopped by adding 25 µl of 50 mM EDTA containing SPA beads (4 µg/µl, Amersham RPNQ 0007). Plates were read on a Packard Top Count NXT after >1hr incubation at room temperature.
Modified HCV NS5B RdRp enzyme assay. A modified enzyme assay was performed essentially as described for the standard enzyme assay except for the following: The biotinylated oligo dT12 primer was precaptured on streptavidin-coated SPA beads by mixing primer and beads in assay buffer and incubating at room temperature for one hour. Unbound primer was removed after centrifugation. The primer-bound beads were resuspended in 20 mM Hepes buffer, pH 7.5 and used in the assay at final concentrations of 20 nM primer and 0.67 µg/µl beads. Order of addition in the assay: enzyme (14 nM) was added to diluted compound followed by the addition of a mixture of template (0.2 nM) , 3H-UTP (0.6 µCi, 0.29 µM), and primer-bound beads, to initiate the reaction; concentrations given are final. Reactions were allowed to proceed for 4 hours at 30° C.
IC50 values for compounds were determined using seven different [I]. […]

[3] = HCV replicon cells, FRET assay, read-out: EC50

SMILES	EC50 [1, 3]	IC50 [2]	EC50 [1]
COc1ccc2c(c1)C1CC1(C(=O)N1CCCN(C)CC1)Cn1c-2c(C2CCCCC2)c2ccc(C(=O)NS(N)(=O)=O)cc21 (centres unmarked)	0.097 to 1 µM	0.097 to 1 µM	–
COc1ccc2c(c1)C1CC1(C(=O)N1C[C@@H](C)O[C@@H](C)C1)Cn1c-2c(C2CCCCC2)c2ccc(C(=O)NS(=O)(=O)C3CC3)cc21 (some centres unmarked)	0.097 to 1 µM	0.097 to 1 µM	–
COc1ccc2c(c1)C1CC1(C(=O)N1CCC(C)(O)CC1)Cn1c-2c(C2CCCCC2)c2ccc(C(=O)NS(=O)(=O)N3CCC3)cc21 (centres unmarked)	0.097 to 1 µM	0.097 to 1 µM	–
COCC1CN(C(=O)C23CC2c2cc(OC)ccc2-c2c(C4CCCCC4)c4ccc(C(=O)NS(=O)(=O)N(C)C)cc4n2C3)CCO1 (centres unmarked)	–	0.097 to 1 µM	0.097 to 1 µM
COc1ccc2c(c1)C1CC1(C(=O)N1CCOC[C@H]1CN)Cn1c-2c(C2CCCCC2)c2ccc(C(=O)NS(=O)(=O)N(C)C)cc21 (some centres unmarked)	0.097 to 1 µM	0.097 to 1 µM	–
COc1ccc2c(c1)C1CC1(C(=O)N1CCCN(C)CC1)Cn1c-2c(C2CCCCC2)c2ccc(C(=O)NS(=O)(=O)C3CC3)cc21 (centres unmarked)	0.097 to 1 µM	0.097 to 1 µM	–
COc1ccc2c(c1)C1CC1(C(=O)N1CC(C)OC(C)C1)Cn1c-2c(C2CCCCC2)c2ccc(C(=O)NS(C)(=O)=O)cc21 (centres unmarked)	–	0.097 to 1 µM	0.097 to 1 µM
COc1ccc2c(c1)[C@@H]1C[C@]1(C(=O)O)Cn1c-2c(C2CCCCC2)c2ccc(C(=O)NS(=O)(=O)N(C)C)cc21	–	0.097 to 1 µM	1 to 10 µM
COc1ccc2c(c1)C1CC1(C(=O)N1CCC(C)(O)CC1)Cn1c-2c(C2CCCCC2)c2ccc(C(=O)NS(C)(=O)=O)cc21 (centres unmarked)	0.097 to 1 µM	0.097 to 1 µM	–
COC(=O)c1ccc2c(C3CCCCC3)c3n(c2c1)CC1(C(=O)OC)CC1c1c(OC(F)(F)F)cccc1-3 (centres unmarked)	> 0.12 µM	> 10 µM	–
COc1cccc2c1C1CC1(C(=O)N1C[C@@H](C)O[C@@H](C)C1)Cn1c-2c(C2CCCCC2)c2ccc(C(=O)NS(=O)(=O)N(C)C)cc21 (some centres unmarked)	0.097 to 1 µM	0.097 to 1 µM	–
CCN(CC)CCN(CCN(CC)CC)C(=O)C12CC1c1cc(OC)ccc1-c1c(C3CCCCC3)c3ccc(C(=O)NS(=O)(=O)N(C)C)cc3n1C2 (centres unmarked)	0.097 to 1 µM	0.097 to 1 µM	–
COc1ccc2c(c1)C1CC1(C(=O)N1CCC(C)(O)CC1)Cn1c-2c(C2CCCCC2)c2ccc(C(=O)NS(N)(=O)=O)cc21 (centres unmarked)	0.097 to 1 µM	0.097 to 1 µM	–
C[C@@H]1CN(C(=O)C23CC2c2c(OC(F)(F)F)cccc2-c2c(C4CCCCC4)c4ccc(C(=O)O)cc4n2C3)C[C@H](C)O1 (some centres unmarked)	0.097 to 1 µM	0.097 to 1 µM	–
COc1ccc2c(c1)C1CC1(C(=O)N1CCCNCC1)Cn1c-2c(C2CCCCC2)c2ccc(C(=O)NS(=O)(=O)N(C)C)cc21 (centres unmarked)	0.097 to 1 µM	0.097 to 1 µM	–
COc1ccc2c(c1)C1CC1(C(=O)N1CC[C@@H](N(C)C)C1)Cn1c-2c(C2CCCCC2)c2ccc(C(=O)NS(=O)(=O)N(C)C)cc21 (some centres unmarked)	0.097 to 1 µM	0.097 to 1 µM	–
